The results in this text go back to patent publication US10098895B2, “Treatment of symptoms related to neurodegenerative disorders through pharmacological dermal activation of cranial nerves” (GLIA, LLC, priority 2016, dated 2018).

A value given as a limit tells only on which side of the number the result lay.

Data set [1] relates to Parkinson's disease symptoms. The data set can be described thus: Example 1: Parkinson's disease patient, dermal application to forehead and ear conchae. The method, then:
A person was diagnosed with the early stages of Parkinson's disease in December of 2014. Their symptoms included tremors in the hands, impaired short term memory, slow and uncontrolled rigid movements while walking and eating, and declining ocular blink function. The patient also had dry eyes with hyper-tearing, burning, and itching.
The patient was also treated with progesterone 1% on the forehead initially once daily beginning in March 2015. […] The progesterone was applied as needed for about a year.
Instead of the prescribed regimen, the patient began dermal application of dronabinol 1.25 mg 2 times daily to three sites: (i) the forehead, (ii) the concha of the left ear, and (iii) the concha of the right ear. Each dose of 1.25 mg was divided equally between the three application sites. This treatment regimen began Friday Jun. 10, 2016 concurrent with the discontinuation of rasagiline.
In February 2017, the patient, who suffers from debilitating moderate spinal stenosis, started taking Azilect (rasagiline) and carbidopa-levodopa to improve their walking and flexibility. […] The patient decided that, together with the prescribed medications, they would switch from dronabinol to topical testosterone gel applied to the forehead and ear conchae to see if this would impact their longstanding low testosterone levels.
In March 2017, topical testosterone gel application was instituted as an adjunct to is the prescribed Azilect and carbidopa-levodopa.
The patient voluntarily stopped topical testosterone for 3 weeks in June 2017. […] At the end of 3 weeks, topical testosterone was re-instituted as an adjunct to the prescribed medications.

The test system of a further data set is essential tremor. The experiment in a line: Example 7: essential tremor subject with contact lens discomfort. The format is in vivo, human. As for the experimental part: A person developed persistent right hand tremors of a kinetic (non-resting) type that has been continuous over the past 6 years. […] This condition had not worsened over time. […] Initially, their doctor thought that these symptoms were stress related and they have been taking 2.5 mg of escitalopram for over 6 years. […] The subject was not on hormone replacement therapy or any other medication.
Concomitantly, the subject suffered from uncomfortable eyes, with a sticky burning sensation and development of blurred vision after about 5-6 hours of contact lens wear. For the past 3 years, the subject was administered 1% progesterone gel (1 mg per day) by dermal application to the forehead once per night. The progesterone gel prolonged comfortable contact lens wear time with sustained visual acuity from 5-6 hours to greater than 15 hours. […] After 2 years of treatment, the benefits of progesterone dermal application persisted for at least 3 days without treatment. There was no effect of the progesterone on their tremor symptoms.
After allowing for washout of progesterone for 3 days, they began forehead application of 0.5-0.75 mg dronabinol once daily at night.
The dronabinol administration regimen was altered by dividing equally the once daily dose of 0.5-0.75 mg dronabinol between the conchae of the left ear, the conchae of the right ear, and the forehead. […] Comfortable contact lens wear, with ease of insertion and removal, and visual acuity extends for 15 hours or more after dronabinol application.
Contact lens comfort wear duration was greater than 15 hours.
In April 2017, the subject, while still being treated with 1% progesterone applied to the forehead, instituted a once-daily low dose topical testosterone applied to the forehead and ear conchae to determine if doing so would produce a beneficial impact on further tremor reduction and in particular essential tremor triggered by caffeine consumption. […] They stopped the treatment to assess whether the tremor would return to pre-testosterone treatment levels. As of August 2017, the subject is without noticeable tremor. The caffeine trigger for tremor onset, which had been recognized throughout all treatments, has not re-appeared since the completion of the 4-week testosterone treatment. The subject continues on low-dose progesterone 1% applied daily to the forehead as the only treatment.

For data set [2], the system named is Parkinson's disease symptoms. The experiment in a line: Example 2: Parkinson's disease subject, topical progesterone and testosterone. The class given is in vivo, human. An excerpt:
A person was diagnosed with Parkinson's disease in August of 2015. Notable symptoms include both resting and action tremor of the left hand and fingers, forearm, and, to a lesser extent, the right hand and the left leg. Handwriting and computer keyboard work were difficult. They had ocular symptoms associated with the disease, including dry eye disease with moderate to severe burning and grittiness, rapid blink rate, and partial blinking. They used artificial tears constantly in an attempt to alleviate the ocular symptoms. They had not been on any Parkinson's medications. Their Parkinson's tremor followed an “on-off” cycle that correlated with their stress levels, the “on” cycle being times with low stress and few symptoms, and the “off” cycle induced by stress showing an increase in symptoms.
In late February 2017, the subject started applying single daily doses of 0.125% testosterone to the forehead and ear conchae. By the third day of treatment, the subject was tremor-free for periods of 4-6 hours, and the “on” part of the cycle was more frequent. […] The dose of testosterone was increased to 0.2% once daily in early April.
In July 2017, testosterone application was stopped after a taper to evaluate its effects. […] On Aug. 17, 2017, they reported extreme anxiety.
That same afternoon, the subject applied 0.2% testosterone to their forehead and ear conchae, and the next day reported less anxiety and more “on” cycles. By Aug. 20, 2017, they reported having stabilized on the once daily applications with a 60% or greater increase in “on” periods. On August 28, they reported going 9 hours without tremors and leg spasms. On Aug. 30, 2017, the subject was able to walk 8 miles and exercised in between. They described themself as feeling 100%.

Setting [3] is: prescribed Azilect (rasagiline) together with carbidopa-levodopa.
Where [4] appears, read: once-daily low dose topical testosterone to forehead and ear conchae, 4 weeks, with 1% progesterone to forehead.

As for `C#CCN[C@@H]1CCc2ccccc21` [Azilect, rasagiline], in data set [1] (setting [3]), the motor function result is given as “some motor function improvement” and the tremor entry was “no more improved than when they were applying dronabinol alone”.
On to `CN(C)CCC[C@@]1(c2ccc(F)cc2)OCc2cc(C#N)ccc21` [escitalopram], for which, in the data set on essential tremor (2.5 mg of escitalopram for over 6 years), the tremor entry is “no resolution of the tremor”.
`C[C@]12CC[C@H]3[C@@H](CCC4=CC(=O)CC[C@@]43C)[C@@H]1CC[C@@H]2O` [testosterone]: in the data set on essential tremor (setting [4]), the “caffeine trigger of essential tremor” value is “near complete resolution of the caffeine trigger”; the “reduction in tremor amplitude and frequency over the original baseline” value is no more than 90%. Further, in data set [2] (0.125% testosterone once daily, mid-March), the tremor-free days result is reported as “two full days tremor-free”. Also, in data set [2] (0.125% testosterone single daily doses to forehead and ear conchae), the “tremor amplitude and resolution” value was “the amplitude was less, and the tremors resolved sooner”. Besides, in data set [2] (0.125% testosterone single daily doses to forehead and ear conchae, by the third day), the tremor-free periods is 4 to 6 h. Moreover, the “time without tremors and leg spasms” value in data set [2] (0.2% testosterone once daily, August 28) is 9 h. Further, the “increase in 'on' periods” value in data set [2] (0.2% testosterone once daily, by Aug. 20, 2017) was no less than 60%. Also, the anxiety entry in data set [2] (0.2% testosterone re-applied to forehead and ear conchae, next day) was “less anxiety”. The “symptom trend after stopping treatment” value in data set [2] (6 weeks of testosterone abstinence) is “downward trend in symptoms to pre-treatment levels”. The “blood total and free testosterone” value in data set [2] (July 2017, after topical testosterone 0.125-0.2% once daily) was “mildly elevated total and free testosterone”. Moreover, the “tremors after stopping treatment” value in data set [2] (day 3 of testosterone abstinence) is “tremors were more frequent”. Further, the “stress management, mood, libido” value in data set [2] (testosterone 0.2% once daily, through April 2017) is “improved stress management, elevated mood with increase in libido and vaginal lubrication”. For the same molecule, the “disease progression, assessed by neurologists” value in data set [2] (testosterone administration, no prescribed Parkinson's medications) is recorded as “no disease progression”. Further, in data set [2] (topical testosterone, February to July 2017), the negative side effects result is “No negative side effects”. In data set [1] (testosterone resumed after a three week hiatus), the “overall functioning after resumption” value was “returned immediately to the improved levels”. In addition, the “mental stability, reported by wife” value in data set [1] (testosterone to forehead and ears, one-year period up to August 2017) is listed as “very positive impact on their mental stability”. Further, the adverse events entry in data set [1] (throughout low dose neural cranial treatment) is given as “no adverse events were noted”. The “cognitive and non-motor symptoms” value in data set [1] (topical testosterone gel to forehead and ear conchae, adjunct to Azilect and carbidopa-levodopa, by the third day) was “improvement in cognitive and non-motor symptoms”. For the same molecule, the “cognitive and emotional function after stopping treatment” value in data set [1] (topical testosterone stopped for 3 weeks, within 3 days) is “significant decline in cognitive and emotional function”.
